Results on two compounds are retold here after patent US8841292B2, “Induced hypothermia” (Weil Institute of Critical Care Medicine, priority 2011, dated 2014).

In one assay the test system is porcine model of CPR. As to the kind of experiment: Proposed porcine model study of cardiac arrest and resuscitation. The format is in vivo, Sus scrofa. The settings on record: hypothesis. The text has this: A porcine model of cardiac arrest and resuscitation in domestic pigs, weighing between 40±2 kg, is utilized for a proposed study that applicant is conducting. The porcine model is selected because (1) it has a large body mass and the timing of reduction in body temperature during hypothermia is close to that of the human. […] (3) A large animal model facilitates non-invasive measurements of myocardial function by echocardiographic methods, preserving an intact chest wall for conventional CPR, and specifically, precordial compression. (4) Our research team has had extensive experience for more than 20 years with the porcine model, under conditions of cardiac arrest and resuscitation.
Our aims are to investigate the effects of WIN55, 212-2, the cannabinoid CB1/CB2 receptor agonist, when administered immediately following resuscitation with or without physical surface body cooling on blood temperature, post resuscitation myocardial and cerebral functions, and duration of survival in our porcine model of CPR. We hypothesize that when WIN55, 212-2 is administered immediately following resuscitation, it will rapidly achieve the target blood temperature (34° C., <3 hours), therefore improving post-resuscitation myocardial and cerebral functions, and duration of survival. We further hypothesize that when WIN55, 212-2 is administered in combination with physical surface body cooling, the combination will further reduce the duration for achieving target blood temperature (<1 hour). It will therefore further improve post-resuscitation myocardial and cerebral functions, and duration of survival.
To test our hypotheses, the independent variables are the WIN55, 212-2 and WIN55, 212-2 with physical surface cooling. […]
In experiments, male domestic pigs, weighing 40±2 kg, are fasted overnight except for free access to water. […] End-tidal PC02 is monitored with an infrared analyzer (Model 01R-7101A, Nihon Kohden Corp, Tokyo, Japan). […]

The subject of assay [1] is rat model of cardiac arrest and resuscitation. As to the kind of experiment: Rat model of cardiac arrest and resuscitation. The format is in vivo. On the procedure: The effects of WIN 55, 212-2 were investigated initially in our rat model of cardiac arrest and resuscitation. […] Ventricular fibrillation was induced and untreated for 6 mins and followed by 8 mins of CPR. Resuscitation was then attempted with defibrillation. WIN 55, 212-2 was infused intravenously 10 mins after resuscitation in a dose of 1 mg/kg/hour and continued for 6 hours. The body temperature decreased from 37 to 34° C. within 4 hours after infusion (FIG. 1).

A further assay relates to normal rats. The settings on record: cited from earlier work.
A further assay concerns cannabinoid receptors. The settings on record: versus other neurotransmitter and ion channels; cited from earlier work.

Some results are limits rather than exact numbers.

Regarding `Cc1c(C(=O)NN2CCCCC2)nn(-c2ccc(Cl)cc2Cl)c1-c1ccc(Cl)cc1` [SR141716A], the “blockade of the effects of WIN55, 212-2” value in the assay on porcine model of CPR (pre-treatment with selective CB1 antagonist) is “completely blocked”.

Regarding `Cc1c(C(=O)c2cccc3ccccc23)c2cccc3c2n1[C@H](CN1CCOCC1)CO3` [WIN 55, 212-2], the “time after infusion for body temperature decrease to 34 ° C.” value in assay [1] (1 mg/kg/hour i.v. infusion for 6 hours) was at most 4 h. For the same compound, the “body temperature decreased to” value in assay [1] (1 mg/kg/hour i.v. infusion from 10 mins after resuscitation for 6 hours, from 37 ° C.) is 34 °C. Moreover, the survival result in assay [1] (all animals that received the drug) is listed as “more than 72 hours”. Also, the neurological deficits entry in assay [1] (survivors) is “minimal neurological deficits”. The “post resuscitation myocardial function (ejection fraction, FIG. 2)” value in assay [1] (versus controls) is “significantly better than the controls”. The “body temperature reduced to” value in the assay with normal rats (intramuscular injection, from 37 ° C.) is 34 °C. Also, in the assay on normal rats (intramuscular injection), the “duration hypothermia was maintained” value is “up to 5 hours” and the “hypothermia, dose dependence” value is “produced hypothermia in a dose-dependent manner”. For the same compound, in the assay with normal rats (selective CB1 antagonist given), the “hypothermia effect with selective CB1 antagonist” value is reported as “completely blocked”. Also, the “selectivity for cannabinoid receptors” value in the assay on cannabinoid receptors was “highly selective”. The “time to achieve target blood temperature (34° C.)” value with porcine model of CPR (administered immediately following resuscitation, drug alone) is below 3 h. Moreover, the “time to achieve target blood temperature” value in the assay on porcine model of CPR (in combination with physical surface body cooling) is below 1 h.
